Results on 30 compounds are retold here after US10065941B2, “Aminotriazine derivative and pharmaceutical composition comprising the same” (Shionogi & Co., Ltd., priority 2013, dated 2018).

Series [1] is described as follows: Pharmacokinetic test: bioavailability and total body clearance (Test Example 15). It is filed as in vivo. The following applies: SD rats, from AUCs of oral and intravenous groups. How it is done: • (1) Animals: SD rats were used • (2) Breeding conditions: SD rats were allowed to freely take solid food and sterilized tap water. • (3) Dose and grouping: orally or intravenously administered at a predetermined dose; grouping was as follows (Dose depends on the compound)
Oral administration: 1 mg/kg (n=2)
The total body clearance (CLtot) was calculated by dividing the dose by the AUC of the intravenous administration group.

A further series concerns the target human P2X3 receptor (Homo sapiens (Human), UniProt P56373). The experiment in a line: Evaluation of human P2X3 receptor inhibitory activity (Test Example 1). It is filed as cell-based. The settings on record: C6BU-1 cell transfected with human P2X3 receptor gene, FLIPR 384. In short, it runs like this: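 C6BU-1 cells stably expressing human P2X3, loaded with 4 μM Fluo-3-AM 1 h at 37 °C, preincubated 5 min with test compound, then stimulated with 150 nM ATP solution (stock, pre-dispense) and monitored by FLIPR for 4 min. IC50 derived from maximum fluorescence ratio (post-ATP peak over baseline).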

Series [2] concerns partial sciatic nerve ligation model in rats. The experiment in a line: Analgesic effect in a Seltzer model, Evaluation (1): mechanical allodynia, von Frey filaments (Test Example 6). Format: in vivo. The following applies: rat Seltzer model, reversal of mechanical allodynia (von Frey), single oral administration of 1 mg/kg, at 3 hours. The source says:
Rats were anaesthetized using isoflurane/O2 inhalation anaesthesia. After induction of anesthesia, the left thigh was shaved. An incision was made in the skin just below the hip bone. The muscle was bluntly dissected to expose the sciatic nerve. One third (⅓) to one half (½) of the sciatic nerve thickness was tightly ligated and the wound was closed. The right thigh is used as a sham-operated control. The right thigh undergoes an identical procedure with the left hind limb, however, the sciatic nerve is not manipulated or ligated.
Two weeks after nerve ligation, the effect on mechanical allodynia was assessed using a series of von Frey filaments. For habituation, the rats were placed into a plastic cage on a wire mesh bottom. The mechanical sensitivity (mechanical threshold) of the hind paws was estimated with a series of von Frey filaments (0.4-26 g). The measurement of mechanical sensitivity of the right and left hind paws was performed to obtain predose mechanical sensitivity. […] On the day before the experiment, the rats were evaluated with a series of von Frey filaments to familiarize them with the test procedure. […] Post-dose mechanical sensitivities of the right and left hind paws were measured at approximately 1 to 5 hours after drug administration. Percent reversal of mechanical allodynia for each rat was calculated using the following formula. […]

Series [3] is described as follows: Metabolism stability test, pooled human hepatic microsomes (Test Example 11). It is filed as in vitro ADME. The following applies: human liver microsomes, 30 minutes, compound concentration 0.5 μmol/L. How it is done:
Using commercially available pooled human hepatic microsomes, a test compound is reacted for a constant time, a remaining rate is calculated by comparing a reacted sample and an unreacted sample, thereby, a degree of metabolism in liver is assessed.
A reaction was performed (oxidative reaction) at 37° C. for 0 minute or 30 minutes in the presence of 1 mmol/L NADPH in 0.2 mL of a buffer (50 mmol/L tris-HCl pH 7.4, 150 mmol/L potassium chloride, 10 mmol/L magnesium chloride) containing 0.5 mg protein/mL of human liver microsomes. After the reaction, 50 μL of the reaction solution was added to 100 μL of a methanol/acetonitrile=1/1 (v/v), mixed and centrifuged at 3000 rpm for 15 minutes. The test compound in the supernatant was quantified by LC/MS/MS, and a remaining amount of the test compound after the reaction was calculated, letting a compound amount at 0 minute reaction time to be 100%.
The remaining rate at the compound concentration 0.5 μmol/L are shown below.
On the technique in general: Liver microsomes are a subcellular fraction often used to study metabolism.

The next series concerns the target rat P2X3 receptor (Rattus norvegicus (Rat), UniProt P49654). The series is described as follows: Evaluation of rat P2X3 receptor inhibitory activity (Test Example 3). Format: cell-based. The settings on record: rat P2X3 receptor gene expressed in C6BU-1 cell; read-out: ratP2X3 IC50. How it is done:
Rat P2X3 receptor gene (GenBank accession number NM_031075) was expressed in C6BU-1 cell. The C6BU-1 cells were seeded in a 96-well microtiter plate at a concentration of 2500 cells/well and cultured in the medium (7.0% fetal bovine serum, 7.0% horse serum, and 1% antibiotic and antifungal in DMEM) for one day at 37° C. under 5% carbon dioxide atmosphere. The plasmid was transfected into the cells using transfection reagent FuGENE6 (Promega). The transfected cells were cultured in the medium for one day at 37° C. under 5% carbon dioxide atmosphere. […] Measurement of fluorescence intensity by FDSS 3000 was started, and 40 μL of DMSO solutions containing different concentrations of the test compound as prepared by dilution with dilution buffer (20 mM HEPES, 137 mM NaCl, 5.27 mM KCl, 0.9 mM MgCl2, 1.26 mM CaCl2, 5.6 mM D-glucose, 2.5 mM probenecid, 0.1% Pluronic F-127, pH7.5) were dispensed to each well through the built-in automatic dispenser. Five minutes after, 50 nM ATP solution (50 μL) prepared by dilution with the dilution buffer was dispensed through the built-in automatic dispenser, and the measurement of fluorescence intensity was continued for 4 min. For each well, the specific maximum fluorescence intensity was calculated as the ratio of the maximum fluorescence intensity after addition of the ATP solution to the fluorescence intensity at the starting of the measurement. […]

The structures appear in SMILES notation.

human P2X3 receptor, sequence (P56373 whole entry): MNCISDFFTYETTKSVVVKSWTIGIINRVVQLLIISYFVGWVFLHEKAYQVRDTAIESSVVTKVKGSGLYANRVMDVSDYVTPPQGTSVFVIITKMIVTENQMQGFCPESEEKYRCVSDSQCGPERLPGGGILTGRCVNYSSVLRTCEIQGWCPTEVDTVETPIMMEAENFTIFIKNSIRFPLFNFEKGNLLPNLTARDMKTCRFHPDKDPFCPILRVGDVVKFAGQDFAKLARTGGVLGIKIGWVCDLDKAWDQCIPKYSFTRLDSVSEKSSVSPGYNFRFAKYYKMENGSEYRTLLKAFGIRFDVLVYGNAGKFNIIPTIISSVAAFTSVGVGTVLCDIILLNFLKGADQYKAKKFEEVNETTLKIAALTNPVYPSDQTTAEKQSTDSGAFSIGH
rat P2X3 receptor, sequence (P49654 whole entry): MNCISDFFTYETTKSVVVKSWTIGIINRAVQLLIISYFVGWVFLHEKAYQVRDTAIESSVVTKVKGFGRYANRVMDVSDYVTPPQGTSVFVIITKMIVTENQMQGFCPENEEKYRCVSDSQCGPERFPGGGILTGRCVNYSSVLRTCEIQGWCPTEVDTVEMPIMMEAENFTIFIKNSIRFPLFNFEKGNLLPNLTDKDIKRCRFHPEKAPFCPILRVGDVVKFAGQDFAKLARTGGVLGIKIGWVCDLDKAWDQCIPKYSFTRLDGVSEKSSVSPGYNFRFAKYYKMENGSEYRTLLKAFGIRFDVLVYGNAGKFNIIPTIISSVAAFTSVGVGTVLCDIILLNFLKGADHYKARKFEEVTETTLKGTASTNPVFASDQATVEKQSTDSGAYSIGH

The compound `C[C@@H](Cn1c(=O)[nH]/c(=N\c2ccc(Oc3cccc(Cl)n3)cc2)n(Cc2ccc(Cl)cc2)c1=O)C(=O)O` [Compound I-014] came in with a BA in series [1] of 106.2%. This compound also had an IC50 at human P2X3 receptor of 7 nM.
In the same order, the values of `O=C(O)C1(Cn2c(=O)[nH]/c(=N\c3ccc(Oc4cccc(F)n4)cc3)n(Cc3ccc(Cl)cc3)c2=O)CC1` [Compound I-017] are 80.7% and 6 nM.
Turning to `O=c1[nH]/c(=N\c2ccc(Oc3ccc(F)cn3)cc2)n(Cc2ccc(Cl)cc2)c(=O)n1[C@H]1C[C@H](C(=O)O)C1` [Compound I-019], the “% reversal” value in series [2] was found to be 27.9%. For the same compound, half-maximal inhibition against human P2X3 receptor (IC50) required 7 nM. The “Metabolism Stability (remaining rate)” value in series [3] amounted to 96%.
`C[C@@H](Cn1c(=O)[nH]/c(=N\c2ccc(Oc3cccc(F)n3)cc2)n(Cc2ccc(F)cc2F)c1=O)C(=O)O` [Compound I-029]: the IC50 against human P2X3 receptor is 14 nM. Moreover, the “Metabolism Stability (remaining rate)” value in series [3] is listed as 100%.
In series [1], `Cc1ccc(Cn2c(=O)n(C[C@H](C)C(=O)O)c(=O)[nH]/c2=N\c2ccc(Oc3ccc(F)cn3)cc2)cc1` [Compound I-040] displayed a BA of 70.3%.
As to `Cc1ccc(Oc2ccc(/N=c3\[nH]c(=O)n(CC(C)(C)C(=O)O)c(=O)n3Cc3ccc(Cl)cc3)cc2)nc1` [Compound I-058], in series [1], the BA is on record as 67.2%. Inhibition against human P2X3 receptor was half-maximal at 6 nM (IC50).
`O=c1[nH]/c(=N\c2ccc(Oc3ncccc3F)cc2)n(Cc2ccc(Cl)cc2)c(=O)n1[C@H]1C[C@H](C(=O)O)C1` [Compound I-063] had an IC50 against human P2X3 receptor of 9 nM. The “Metabolism Stability (remaining rate)” value in series [3] stood at 97%.
In the same order, the values of `C[C@@H](Cn1c(=O)[nH]/c(=N\c2ccc(Oc3cc(F)ccn3)cc2)n(Cc2ccc(Cl)cc2)c1=O)C(=O)O` [Compound I-070] are 5 nM and 103%.
Compound `C[C@@H](Cn1c(=O)[nH]/c(=N\c2ccc(Oc3ccccn3)cc2)n(Cc2ccc(Cl)cc2)c1=O)C(=O)O` [Compound I-127] yielded a BA in series [1] of 52.8%. On human P2X3 receptor, this compound registered an IC50 of 4 nM.
`COc1cc(Oc2ccc(/N=c3\[nH]c(=O)n([C@@H](C)[C@@H](C)C(=O)O)c(=O)n3Cc3ccc(Cl)cc3)cc2)ccn1` [Compound R-009]: the IC50 at rat P2X3 receptor came out at 4 nM; on human P2X3 receptor it was 7 nM.
For `CCOC(=O)CCCn1c(=O)[nH]/c(=N\c2ccc(Oc3ncccc3F)cc2)n(Cc2ccc(C)cc2)c1=O` [Compound R-294], the IC50 on human P2X3 receptor turned out to be 6 nM.
Same read-out and setting: then `CCOC(=O)CCCn1c(=O)[nH]/c(=N\c2ccc(Oc3ccc(F)cn3)cc2)n(Cc2ccc(C)cc2)c1=O` [Compound R-295], with 6 nM; and `CCOC(=O)CCCn1c(=O)[nH]/c(=N\c2ccc(Oc3cccc(F)n3)cc2)n(Cc2ccc(C)cc2)c1=O` [Compound R-296], with 5 nM; and `O=C(O)CCn1c(=O)[nH]/c(=N\c2ccc(Oc3ccccn3)c(Cl)c2)n(Cc2ccc(Cl)cc2)c1=O` [Compound R-297], with 8 nM.
Turning to `Cc1ccc(Cn2c(=O)n(CCC(=O)O)c(=O)[nH]/c2=N\c2ccc(Oc3ccccn3)c(Cl)c2)cc1` [Compound R-298], on human P2X3 receptor, the IC50 worked out at 9 nM.
`CC(=O)c1cccc(Oc2ccc(/N=c3\[nH]c(=O)n(CCC(=O)O)c(=O)n3Cc3ccc(Cl)cc3)cc2)n1` [Compound R-299] showed an IC50 at human P2X3 receptor of 20 nM.
The compound `COC(=O)CCn1c(=O)[nH]/c(=N\c2ccc(Oc3ccccn3)c(Cl)c2)n(Cc2ccc(Cl)cc2)c1=O` [Compound R-300] displayed an IC50 at human P2X3 receptor of 8 nM.
On the same count and under the same terms, then `COC(=O)CCn1c(=O)[nH]/c(=N\c2ccc(Oc3ccccn3)c(Cl)c2)n(Cc2ccc(C)cc2)c1=O` [Compound R-301], with 5 nM; and `COC(=O)CCn1c(=O)[nH]/c(=N\c2ccc(Oc3cccc(C(C)=O)n3)cc2)n(Cc2ccc(Cl)cc2)c1=O` [Compound R-302], with 6 nM.
The same measure, in the same setting: with `COC(=O)CCn1c(=O)[nH]/c(=N\c2ccc(Oc3ccc(C(C)=O)cn3)cc2)n(Cc2ccc(Cl)cc2)c1=O` [Compound R-303] the figure was 3 nM; with `COC(=O)CCn1c(=O)[nH]/c(=N\c2ccc(Oc3ccc(C(C)O)cn3)cc2)n(Cc2ccc(Cl)cc2)c1=O` (stereo not shown) [Compound R-304], 4 nM; with `CC(=O)c1ccc(Oc2ccc(/N=c3\[nH]c(=O)n(CCC(=O)O)c(=O)n3Cc3ccc(Cl)cc3)cc2)nc1` [Compound R-305], 7 nM.
On the same count and under the same terms, with `CC(O)c1ccc(Oc2ccc(/N=c3\[nH]c(=O)n(CCC(=O)O)c(=O)n3Cc3ccc(Cl)cc3)cc2)nc1` (stereo not shown) [Compound R-306] the figure was 14 nM.
With `CCOC(=O)Cn1c(=O)[nH]/c(=N\c2ccc(Oc3ccccn3)cc2)n(Cc2ccc(F)cc2)c1=O` [Compound R-307], half-maximal inhibition on human P2X3 receptor (IC50) required 13 nM.
Take `CCOC(=O)Cn1c(=O)[nH]/c(=N\c2ccc(Oc3ccc(F)cn3)cc2)n(Cc2ccc(Cl)cc2)c1=O` [Compound R-309]: half-maximal inhibition at human P2X3 receptor (IC50) was put at 4 nM.
`CCOC(=O)Cn1c(=O)[nH]/c(=N\c2ccc(Oc3ccc(Cl)cn3)cc2)n(Cc2ccc(Cl)cc2)c1=O` [Compound R-310] gave an IC50 against human P2X3 receptor of 4 nM.
On the same count and under the same terms, then `O=C(O)Cn1c(=O)[nH]/c(=N\c2ccc(Oc3ccc(F)cn3)cc2)n(Cc2ccc(Cl)cc2)c1=O` [Compound R-311], with 428 nM.
On human P2X3 receptor, `O=C(O)Cn1c(=O)[nH]/c(=N\c2ccc(Oc3ccc(Cl)cn3)cc2)n(Cc2ccc(Cl)cc2)c1=O` [Compound R-312] gave an IC50 of 350 nM.
On the same count and under the same terms, then `CCOC(=O)Cn1c(=O)[nH]/c(=N\c2ccc(Oc3ccc(C#N)cn3)cc2)n(Cc2ccc(Cl)cc2)c1=O` [Compound R-313], with 3 nM.
Still for that read-out and setting: then `N#Cc1ccc(Oc2ccc(/N=c3\[nH]c(=O)n(CC(=O)O)c(=O)n3Cc3ccc(Cl)cc3)cc2)nc1` [Compound R-314], with 48 nM.

Broadly, the IC50 is the concentration that inhibits the measured activity by half.
